Measured values taken from patent US20100075854A1, “HERBICIDE COMBINATION COMPRISING DIMETHOSXYTRIAZINYL-SUBSTITUTED DIFLUOROMETHANESULFONYLANILIDES” (Bayer CropScience AG, priority 2008, published 2010).
Where two headings read alike, the source gives them in different places.

Legend:
Test in all cases: Post-emergence action, greenhouse pot test, visual scoring
Type in all cases: in vivo
[1] = system: Abuthilon theophrasti (ABUTH); details: Abutilon theophrasti, ABUTH, read-out: % activity found; for inhibition at 4 g/ha: 4 g of ai/ha; for inhibition at 12 g/ha: 12 g of ai/ha
Method: (§1) Seeds or rhizome pieces of mono- and dicotyledonous harmful and useful plants were placed in peat pots (diameter 4 cm) filled with sandy loam and then covered with soil. The pots were kept in a greenhouse under optimum conditions. In addition, harmful plants encountered in paddy rice cultivation were cultivated in pots with a water level 2 cm above the soil surface.
(§2) About three weeks after the start of the cultivation, the test plants were treated at the 2- to 3-leaf stage. The herbicides, formulated as powder or liquid concentrates, were, either alone or in the combinations according to the invention, sprayed in various dosages on to the green parts of the plants using an application rate of 600 l of water/ha (converted). For further cultivation of the plants, the pots were then again kept under optimum conditions in a greenhouse.
(§3) The visual scoring of the herbicidal effects was carried out in intervals up to 21 days after the treatment. Scoring was carried out in percent in comparison to the untreated control plants. 0%=no herbicidal activity, 100%=complete herbicidal activity=complete kill.
(§4) The percentages from the treatments with the herbicides alone (=individual application) and with the combinations according to the invention (=mixtures) were employed to calculate interactions using the method of Colby. When the observed efficacies of the mixtures exceed the formal sum of the values of the tests with individual applications, they also exceed the expected value according to Colby, which is calculated using the formula below (cf. S. R. Colby; in Weeds 15 (1967) pp. 20 to 22):
(§5) • A, B=activity of components A and B in percent at a dosage of a and b g of ai/ha (=gramm of active substance per hectare), respectively. • E=expected value in % at a dosage of a+b g of ai/ha.

[2] = system: Alopecurus myosuroides (ALOMY); details: 504 h, ALOMY, 21 DAT, read-out: % activity found
Method: as §1, §2, §3, §4, §5

[3] = system: Amaranthus retroflexus (AMARE); details: AMARE, read-out: % activity found; for inhibition at 12 g/ha: 12 g of ai/ha
Method: as §1, §2, §3, §4, §5

Avena fatua (AVEFA) = details: AVEFA, read-out: % activity found; for inhibition at 4 g/ha: 4 g of ai/ha; for inhibition at 12 g/ha: 12 g of ai/ha
Method: as §1, §2, §3, §4, §5

[4] = system: Cyperus esculentus (CYPES); details: CYPES, 21 DAT
Method: as §1, §2, §3, §4, §5

[5] = system: Fallopia (ex Polygonum) convolvulus (POLCO); details: POLCO, read-out: % activity found; for inhibition at 4 g/ha: 4 g of ai/ha; for inhibition at 12 g/ha: 12 g of ai/ha
Method: as §1, §2, §3, §4, §5

[6] = system: Lolium multiflorum (LOLMU); details: read-out: % activity found; for inhibition at 4 g/ha: 4 g of ai/ha; for inhibition at 12 g/ha: 12 g of ai/ha
Method: as §1, §2, §3, §4, §5

[7] = system: Matricaria inodora (MATIN); details: Tripleurospermum inodorum, MATIN, read-out: % activity found; for inhibition at 4 g/ha: 4 g of ai/ha
Method: as §1, §2, §3, §4, §5

Oryza sativa (ORYSA) = details: ORYSA, read-out: % activity found; for inhibition at 12 g/ha: 12 g of ai/ha
Method: as §1, §2, §3, §4, §5

[8] = system: Pharbitis purpurea (PHBPU); details: Ipomoea purpurea, PHBPU, read-out: % activity found; for inhibition at 4 g/ha: 4 g of ai/ha; for inhibition at 12 g/ha: 12 g of ai/ha
Method: as §1, §2, §3, §4, §5

[9] = system: Triticum aestivum (TRZAS); details: TRZAS, read-out: % activity found; for inhibition at 4 g/ha: 4 g of ai/ha; for inhibition at 12 g/ha: 12 g of ai/ha
Method: as §1, §2, §3, §4, §5

Veronica persica (VERPE) = details: VERPE, read-out: % activity found; for inhibition at 12 g/ha: 12 g of ai/ha
Method: as §1, §2, §3, §4, §5

Viola tricolor (VIOTR) = details: VIOTR, read-out: % activity found; for inhibition at 4 g/ha: 4 g of ai/ha; for inhibition at 12 g/ha: 12 g of ai/ha
Method: as §1, §2, §3, §4, §5

Zea mays (ZEAMX) = details: ZEAMX, read-out: % activity found; for inhibition at 4 g/ha: 4 g of ai/ha; for inhibition at 12 g/ha: 12 g of ai/ha
Method: as §1, §2, §3, §4, §5

Work on `COc1nc(OC)nc(C(=O)c2cccc(F)c2N(C)S(=O)(=O)C(F)F)n1` [A-1] yielded an inhibition at 4 g/ha ([1]; 240 h, 10 DAT) of 70%, an inhibition at 12 g/ha ([1]; 240 h, 10 DAT) of 70% and an inhibition at 4 g/ha ([1]; 504 h, 21 DAT) of 85%. The inhibition at 12 g/ha ([1]; 504 h, 21 DAT) was 85%, the inhibition at 4 g/ha ([2]; 4 g of ai/ha) was 40% and the inhibition at 12 g/ha ([2]; 12 g of ai/ha) was 50%. It also gave an inhibition at 12 g/ha ([3]; 240 h, 10 DAT) of 70%, an inhibition at 4 g/ha ([3]; 504 h, 21 DAT, 4 g of ai/ha) of 70% and an inhibition at 12 g/ha ([3]; 504 h, 21 DAT) of 75%. It also gave an inhibition at 4 g/ha (Avena fatua (AVEFA); 240 h, 10 DAT) of 40%, an inhibition at 12 g/ha (Avena fatua (AVEFA); 240 h, 10 DAT) of 50% and an inhibition at 4 g/ha (Avena fatua (AVEFA); 504 h, 21 DAT) of 10%. The inhibition at 12 g/ha (Avena fatua (AVEFA); 504 h, 21 DAT) was 30%, the “(7) % activity found” value ([4]; (5) dose of A-1 4, alone) was 80% and the “(7) % activity found” value ([4]; (5) dose of A-1 12, alone) was 80%. It also gave an inhibition at 4 g/ha ([4]; Cyperus esculentus, 504 h, 4 g of ai/ha, read-out: % activity found) of 80%, an inhibition at 12 g/ha ([4]; Cyperus esculentus, 504 h, 12 g of ai/ha, read-out: % activity found) of 80% and an inhibition at 4 g/ha ([5]; 240 h, 10 DAT) of 70%. It also gave an inhibition at 12 g/ha ([5]; 240 h, 10 DAT) of 70%, an inhibition at 4 g/ha ([5]; 504 h, 21 DAT) of 75% and an inhibition at 12 g/ha ([5]; 504 h, 21 DAT) of 70%. It also gave an inhibition at 4 g/ha ([6]; 240 h, 10 DAT) of 0%, an inhibition at 12 g/ha ([6]; 240 h, 10 DAT) of 10% and an inhibition at 4 g/ha ([6]; 504 h, 21 DAT) of 0%. For the same compound, the inhibition at 12 g/ha ([6]; 504 h, 21 DAT) was 10%, the inhibition at 4 g/ha ([7]; 240 h, 10 DAT) was 60% and the inhibition at 4 g/ha ([7]; 504 h, 21 DAT) was 50%. The inhibition at 12 g/ha ([7]; 504 h, 21 DAT, 12 g of ai/ha) was 60%, the inhibition at 12 g/ha (Oryza sativa (ORYSA); 240 h, 10 DAT) was 10% and the inhibition at 4 g/ha (Oryza sativa (ORYSA); 504 h, 21 DAT, 4 g of ai/ha) was 0%. For the same compound, the inhibition at 12 g/ha (Oryza sativa (ORYSA); 504 h, 21 DAT) was 10%, the inhibition at 4 g/ha ([8]; 240 h, 10 DAT) was 60% and the inhibition at 12 g/ha ([8]; 240 h, 10 DAT) was 60%. For the same compound, the inhibition at 4 g/ha ([8]; 504 h, 21 DAT) was 60%, the inhibition at 12 g/ha ([8]; 504 h, 21 DAT) was 65% and the inhibition at 4 g/ha ([9]; 240 h, 10 DAT) was 0%. The inhibition at 12 g/ha ([9]; 240 h, 10 DAT) was 0%, the inhibition at 4 g/ha ([9]; 504 h, 21 DAT) was 0% and the inhibition at 12 g/ha ([9]; 504 h, 21 DAT) was 0%. The inhibition at 12 g/ha (Veronica persica (VERPE); 240 h, 10 DAT) was 60%, the inhibition at 4 g/ha (Veronica persica (VERPE); 504 h, 21 DAT, 4 g of ai/ha) was 30% and the inhibition at 12 g/ha (Veronica persica (VERPE); 504 h, 21 DAT) was 40%. It also gave an inhibition at 4 g/ha (Viola tricolor (VIOTR); 240 h, 10 DAT) of 20%, an inhibition at 12 g/ha (Viola tricolor (VIOTR); 240 h, 10 DAT) of 20% and an inhibition at 4 g/ha (Viola tricolor (VIOTR); 504 h, 21 DAT) of 0%. It also gave an inhibition at 12 g/ha (Viola tricolor (VIOTR); 504 h, 21 DAT) of 10%, an inhibition at 4 g/ha (Zea mays (ZEAMX); 240 h, 10 DAT) of 0% and an inhibition at 12 g/ha (Zea mays (ZEAMX); 240 h, 10 DAT) of 0%. For the same compound, the inhibition at 4 g/ha (Zea mays (ZEAMX); 504 h, 21 DAT) was 0% and the inhibition at 12 g/ha (Zea mays (ZEAMX); 504 h, 21 DAT) was 0%.
